Experimental data taken from US10828267B2, “Therapeutic regimens and methods for improving visual function in visual disorders associated with an endogenous retinoid deficiency” (RETINAGENIX THERAPEUTICS, INC., priority 2012, dated 2020).

Test: Interim pharmacokinetics, multiple-dose study (Example 5)
Type: in vivo, human
Procedure: Interim Pharmacokinetic results of the study were derived from plasma concentrations of 9-cis-retinyl acetate and its metabolites, measured throughout the study period at prescribed time points. The scope of this interim PK analysis encompasses samples from Cohort 1 including the placebo (n=2), 40 mg/m^2 (n=6) and 60 mg/m^2 (n=2) dose groups obtained in treatment cycles 1, 2 and 3.
The plasma samples were analyzed by liquid chromatography-mass spectrometry-mass spectrometry (LC/MS/MS) for parent drug and potential metabolites. Noncompartmental (NCA) pharmacokinetic (PK) parameters such as AUC were obtained using the WinNonlin software with observational determination of Cmax, tmax, and duration of concentrations above baseline (TD).

SMILES: CC(=O)OC/C=C(C)/C=C/C=C(C)\C=C\C1=C(C)CCCC1(C)C [9-cis-Retinyl acetate, (2E, 4E, 6Z, 8E)-3,7-dimethyl-9-(2,6,6-trimethylcyclohex-1-en-1-yl) nona-2,4,6,8-tetraen-1-yl acetate]
- accumulation of 9-cis-retinol and retinyl ester metabolites on multiple-dosing (40 mg/m^2, repeated seven day cycles): slight to modest accumulation
- accumulation of metabolites from cycle to cycle (40 mg/m^2, Cycles 1, 2 and 3): no accumulation being observed from cycle to cycle
- plasma concentrations (Cohort 1, 40 and 60 mg/m^2, cycles 1-3): low and transient
